Measurements reported in patent US5502035A, “N-terminus modified analogs of LHRH” (Tap Holdings Inc., priority 1994, dated 1996).
Starred links: 1 amine or outer side, 2 acyl side, 3 side chain; linkers in the order of their positions; H or OH if unused. Non-standard residues stand in square brackets, D forms with d. Residues, ends and D or L forms follow the SMILES beside them. Groups on a side chain read outwards from the residue. ξ: configuration not given here. *: point of attachment. Shikimoyl = O=C(C1=C[C@@H](O)[C@@H](O)[C@H](O)C1)*; ξTetrahydrofuran2carbonyl = O=C(C1CCCO1)*; dPhe(4-Cl) = N[C@H](Cc1ccc(Cl)cc1)C(=O)O; d2Nal = N[C@H](Cc1ccc2ccccc2c1)C(=O)O; Lys(iPr) = CC(C)NCCCC[C@H](N)C(=O)O; NMeY = CN[C@@H](Cc1ccc(O)cc1)C(=O)O; dCit = NC(=O)NCCC[C@@H](N)C(=O)O; d3Pal = N[C@H](Cc1cccnc1)C(=O)O; Suc = O=C(CCC(=O)[*:2])[*:1]; Nicotinoyl = O=C(c1cccnc1)*; azaGly = NNC(=O)O; Sar = CNCC(=O)O

The molecules below were run against T1, LHRH (Rattus norvegicus, UniProt P30969) (assay: in vitro test for LHRH antagonist potency (pA2)). Settings: negative logarithm of the antagonist concentration required to shift the response curve produced by the agonist leuprolide to two-fold higher concentration.
T1 construct: endogenous in cells; host or cells: rat pituitary cells (own knowledge of the cited Haviv 1989 method)
T1 sequence (P30969 1-327): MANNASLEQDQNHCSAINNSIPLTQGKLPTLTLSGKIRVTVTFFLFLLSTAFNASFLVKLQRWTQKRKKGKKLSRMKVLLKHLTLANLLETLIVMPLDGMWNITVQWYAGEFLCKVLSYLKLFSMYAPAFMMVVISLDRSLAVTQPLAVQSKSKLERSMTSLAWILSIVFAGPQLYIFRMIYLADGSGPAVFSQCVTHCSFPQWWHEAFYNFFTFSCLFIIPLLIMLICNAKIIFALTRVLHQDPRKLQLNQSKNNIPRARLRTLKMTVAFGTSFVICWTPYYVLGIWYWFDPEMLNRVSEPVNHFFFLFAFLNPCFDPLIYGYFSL
Assay type: cell-based
Procedure: Representative compounds of the present invention were evaluated in an in vitro test for LHRH antagonist potency (pA2). The test employed the method detailed in F. Haviv, et al. J. Med. Chem., 32:2340-2344 (1989). The values of pA2 are the negative logarithms of the concentration of the particular antagonist test compound required to shift the response curve produced by the agonist leuprolide to two-fold higher concentration. (Leuprolide is the LHRH agonist having the structure 5-oxo-Pro^1 -His^2 -Trp^3 -Ser^4 -Tyr^5 -D-Leu^6 -Leu^7 -Arg^8 -Pro^9 -NHEt and is disclosed and claimed in U.S. Pat. No. 4,005,063.) Typically pA2 values of 9.5 or greater are indicative of good LHRH antagonist potency, with values of 10.0 or greater being preferred.

Compared with `CC(C)C[C@H](NC(=O)[C@@H](CCCCNC(=O)NNC(=O)c1cccnc1)NC(=O)[C@H](Cc1ccc(O)cc1)N(C)C(=O)[C@H](CO)NC(=O)[C@@H](Cc1cccnc1)NC(=O)[C@@H](Cc1ccc(Cl)cc1)NC(=O)[C@@H](Cc1ccc2ccccc2c1)NC(=O)CNC(=O)c1cccnc1)C(=O)N[C@@H](CCCCNC(C)C)C(=O)N1CCC[C@H]1C(=O)N[C@H](C)C(N)=O` [Example 9, N-Nicotinyl-Gly-D2Nal-D4ClPhe-D3Pal-Ser-NMeTyr-DLys(Azagly-Nicotinyl)-Leu-Lys(N-epsilon-Isopropyl) -Pro-DAlaNH2] (Nicotinoyl-G[d2Nal][dPhe(4-Cl)][d3Pal]S[NMeY][dK]([azaGly-Nicotinoyl])L[Lys(iPr)]P[dA]-NH2), `CC(C)C[C@H](NC(=O)[C@@H](CCCNC(N)=O)NC(=O)[C@H](Cc1ccc(O)cc1)N(C)C(=O)[C@H](CO)NC(=O)[C@@H](Cc1cccnc1)NC(=O)[C@@H](Cc1ccc(Cl)cc1)NC(=O)[C@@H](Cc1ccc2ccccc2c1)NC(=O)CNC(=O)c1cccnc1)C(=O)N[C@@H](CCCNC(=N)N)C(=O)N1CCC[C@H]1C(=O)N[C@H](C)C(N)=O` [Example 13c, N-Nicotinyl-Gly-D2Nal-D4ClPhe-D3Pal-Ser-NMeTyr-DCit-Leu-Arg-Pro-DAlaNH2] (Nicotinoyl-G[d2Nal][dPhe(4-Cl)][d3Pal]S[NMeY][dCit]LRP[dA]-NH2) is 9.8-fold lower in Kb: 34.7 pM for the first, 3.55 pM for the second.

Compared with `CC(C)C[C@H](NC(=O)[C@@H](CCCNC(N)=O)NC(=O)[C@H](Cc1ccc(O)cc1)N(C)C(=O)[C@H](CO)NC(=O)[C@@H](Cc1cccnc1)NC(=O)[C@@H](Cc1ccc(Cl)cc1)NC(=O)[C@@H](Cc1ccc2ccccc2c1)NC(=O)CNC(=O)C1CCCO1)C(=O)N[C@@H](CCCNC(=N)N)C(=O)N1CCC[C@H]1C(=O)N[C@H](C)C(N)=O` (stereo partly drawn) [Example 13a, N-(R,S)-Tetrahydro-Fur-2-oyl-Gly-D2Nal-D4ClPhe-D3Pal-Ser-NMeTyr-DCit-Leu-Arg-Pro-DAlaNH2] (ξTetrahydrofuran2carbonyl-G[d2Nal][dPhe(4-Cl)][d3Pal]S[NMeY][dCit]LRP[dA]-NH2), `CC(C)C[C@H](NC(=O)[C@@H](CCCNC(N)=O)NC(=O)[C@H](Cc1ccc(O)cc1)N(C)C(=O)[C@H](CO)NC(=O)[C@@H](Cc1cccnc1)NC(=O)[C@@H](Cc1ccc(Cl)cc1)NC(=O)[C@@H](Cc1ccc2ccccc2c1)NC(=O)CNC(=O)CCC(=O)O)C(=O)N[C@@H](CCCNC(=N)N)C(=O)N1CCC[C@H]1C(=O)N[C@H](C)C(N)=O` [Example 13d, N-Succinyl-Gly-D2Nal-D4ClPhe-D3Pal-Ser-NMeTyr-DCit-Leu-Arg-Pro-DAlaNH2] (Suc-G[d2Nal][dPhe(4-Cl)][d3Pal]S[NMeY][dCit]LRP[dA]-NH2) is 9.1-fold higher in Kb: 4.47 pM for the first, 40.7 pM for the second.

First: CC(C)C[C@H](NC(=O)[C@@H](CCCNC(N)=O)NC(=O)[C@H](Cc1ccc(O)cc1)N(C)C(=O)[C@H](CO)NC(=O)[C@@H](Cc1cccnc1)NC(=O)[C@@H](Cc1ccc(Cl)cc1)NC(=O)[C@@H](Cc1ccc2ccccc2c1)NC(=O)CNC(=O)C1=C[C@@H](O)[C@@H](O)[C@H](O)C1)C(=O)N[C@@H](CCCNC(=N)N)C(=O)N1CCC[C@H]1C(=O)N[C@H](C)C(N)=O [Example 13b, N-Shikimyl-Gly-D2Nal-D4ClPhe-D3Pal-Ser-NMeTyr-DCit-Leu-Arg-Pro-DAlaNH2] (Shikimoyl-G[d2Nal][dPhe(4-Cl)][d3Pal]S[NMeY][dCit]LRP[dA]-NH2)
Second: CC(C)C[C@H](NC(=O)[C@@H](CCCNC(N)=O)NC(=O)[C@H](Cc1ccc(O)cc1)N(C)C(=O)[C@H](CO)NC(=O)[C@@H](Cc1cccnc1)NC(=O)[C@@H](Cc1ccc(Cl)cc1)NC(=O)[C@@H](Cc1ccc2ccccc2c1)NC(=O)[C@@H](C)NC(=O)C1=C[C@@H](O)[C@@H](O)[C@H](O)C1)C(=O)N[C@@H](CCCNC(=N)N)C(=O)N1CCC[C@H]1C(=O)N[C@H](C)C(N)=O [Example 13e, N-Shikimyl-DAla-D2Nal-D4ClPhe-D3Pal-Ser-NMeTyr-DCit-Leu-Arg-Pro-DAlaNH2] (Shikimoyl-[dA][d2Nal][dPhe(4-Cl)][d3Pal]S[NMeY][dCit]LRP[dA]-NH2)
The Kb of the first is 3.3-fold lower: 9.55 pM for the first, 31.6 pM for the second.

Compared with `CC(C)C[C@H](NC(=O)[C@@H](CCCNC(N)=O)NC(=O)[C@H](Cc1ccc(O)cc1)N(C)C(=O)[C@H](CO)NC(=O)[C@@H](Cc1cccnc1)NC(=O)[C@@H](Cc1ccc(Cl)cc1)NC(=O)[C@@H](Cc1ccc2ccccc2c1)NC(=O)[C@@H](CO)NC(=O)C1=C[C@@H](O)[C@@H](O)[C@H](O)C1)C(=O)N[C@@H](CCCNC(=N)N)C(=O)N1CCC[C@H]1C(=O)N[C@H](C)C(N)=O` [Example 13f, N-Shikimyl-DSer-D2Nal-D4ClPhe-D3Pal-Ser-NMeTyr-DCit-Leu-Arg-Pro-DAlaNH2] (Shikimoyl-[dS][d2Nal][dPhe(4-Cl)][d3Pal]S[NMeY][dCit]LRP[dA]-NH2), `CC(C)C[C@H](NC(=O)[C@@H](CCCCNC(=O)C1=C[C@@H](O)[C@@H](O)[C@H](O)C1)NC(=O)[C@H](Cc1ccc(O)cc1)N(C)C(=O)[C@H](CO)NC(=O)[C@@H](Cc1cccnc1)NC(=O)[C@@H](Cc1ccc(Cl)cc1)NC(=O)[C@@H](Cc1ccc2ccccc2c1)NC(=O)[C@@H](C)NC(=O)c1cccnc1)C(=O)N[C@@H](CCCNC(=N)N)C(=O)N1CCC[C@H]1C(=O)N[C@H](C)C(N)=O` [Example 14c, N-Nicotinyl-DAla-D2Nal-D4ClPhe-D3Pal-Ser-NMeTyr-DLys(Shik)-Leu-Arg-Pro-DAlaNH2] (Nicotinoyl-[dA][d2Nal][dPhe(4-Cl)][d3Pal]S[NMeY][dK](Shikimoyl)LRP[dA]-NH2) is 3.3-fold lower in Kb: 17.8 pM for the first, 5.37 pM for the second.

Going from `CC(C)C[C@H](NC(=O)[C@@H](CCCCNC(=O)C1=C[C@@H](O)[C@@H](O)[C@H](O)C1)NC(=O)[C@H](Cc1ccc(O)cc1)N(C)C(=O)[C@H](CO)NC(=O)[C@@H](Cc1cccnc1)NC(=O)[C@@H](Cc1ccc(Cl)cc1)NC(=O)[C@@H](Cc1ccc2ccccc2c1)NC(=O)CN(C)C(=O)c1cccnc1)C(=O)N[C@@H](CCCNC(=N)N)C(=O)N1CCC[C@H]1C(=O)N[C@H](C)C(N)=O` [Example 14a, N-Nicotinyl-Sar-D2Nal-D4ClPhe-D3Pal-Ser-NMeTyr-DLys(Shik)-Leu-Arg-Pro-DAlaNH2] (Nicotinoyl-[Sar][d2Nal][dPhe(4-Cl)][d3Pal]S[NMeY][dK](Shikimoyl)LRP[dA]-NH2) to `CC(C)C[C@H](NC(=O)[C@@H](CCCCNC(=O)C1=C[C@@H](O)[C@@H](O)[C@H](O)C1)NC(=O)[C@H](Cc1ccc(O)cc1)N(C)C(=O)[C@H](CO)NC(=O)[C@@H](Cc1cccnc1)NC(=O)[C@@H](Cc1ccc(Cl)cc1)NC(=O)[C@@H](Cc1ccc2ccccc2c1)NC(=O)CN(C)C(=O)C1=C[C@@H](O)[C@@H](O)[C@H](O)C1)C(=O)N[C@@H](CCCNC(=N)N)C(=O)N1CCC[C@H]1C(=O)N[C@H](C)C(N)=O` [Example 14b, N-Shikimyl-Sar-D2Nal-D4ClPhe-D3Pal-Ser-NMeTyr-DLys(Shik)-Leu-Arg-Pro-DAlaNH2] (Shikimoyl-[Sar][d2Nal][dPhe(4-Cl)][d3Pal]S[NMeY][dK](Shikimoyl)LRP[dA]-NH2), the Kb rises from 13.2 pM to 105 pM (8-fold).
